Assay: Stability of non-aqueous mixtures of 1-(nitrosooxy)-propan-2-ol and 2-(nitrosooxy)-propan-1-ol in 1,2-propanediol, GC analysis
Format: physicochemical
Experimental: Three different concentrations of 1-(nitrosooxy)-propan-2-ol and 2-(nitrosooxy)-propan-1-ol in 1,2-propanediol were prepared and stored in both a refrigerator (5° C.) and freezer (−20° C.). Aliquots of each solution were taken periodically and analysed by GC to determine the concentration of 1-(nitrosooxy)-propan-2-ol and 2-(nitrosooxy)-propan-1-ol.
The results of the GC analysis are shown in the table below (column: Rxi-5Sil MS, 20 m×0.18 mm, […]; carrier: He; Inlet: 250° C., split ratio 100:1; constant flow: 1.0 mL/min; oven temperature profile: 40° C. (3 min), 10° C./min, 80° C. (0 min), 30° C./min, 250° C. (3 min); FID: 300° C., H2 flow 30 mL/min, air flow 400 mL/min, make-up flow (N2) 25 mL/min; internal standard: 1,1,1,3,5,5,5-heptamethyl trisiloxane): […]

[1] = Freezer (−20° C.), 10 days, Low conc. sample in 1,2-propanediol
[2] = Freezer (−20° C.), 10 days, Medium conc. sample in 1,2-propanediol
[3] = Freezer (−20° C.), 14 days, High conc. sample in 1,2-propanediol
[4] = Freezer (−20° C.), 27 days, Low conc. sample in 1,2-propanediol
[5] = Freezer (−20° C.), 27 days, Medium conc. sample in 1,2-propanediol
[6] = Freezer (−20° C.), 28 days, High conc. sample in 1,2-propanediol
[7] = Freezer (−20° C.), 56 days, High conc. sample in 1,2-propanediol
[8] = Freezer (−20° C.), 64 days, Low conc. sample in 1,2-propanediol
[9] = Freezer (−20° C.), 64 days, Medium conc. sample in 1,2-propanediol
[10] = Freezer (−20° C.), 84 days, High conc. sample in 1,2-propanediol
[11] = Freezer (−20° C.), 84 days, Low conc. sample in 1,2-propanediol
[12] = Freezer (−20° C.), 84 days, Medium conc. sample in 1,2-propanediol
[13] = Freezer (−20° C.), Start, High conc. sample in 1,2-propanediol
[14] = Freezer (−20° C.), Start, Low conc. sample in 1,2-propanediol
[15] = Freezer (−20° C.), Start, Medium conc. sample in 1,2-propanediol
[16] = Refrigerator (5° C.), 10 days, Low conc. sample in 1,2-propanediol
[17] = Refrigerator (5° C.), 10 days, Medium conc. sample in 1,2-propanediol
[18] = Refrigerator (5° C.), 14 days, High conc. sample in 1,2-propanediol
[19] = Refrigerator (5° C.), 27 days, Low conc. sample in 1,2-propanediol
[20] = Refrigerator (5° C.), 27 days, Medium conc. sample in 1,2-propanediol
[21] = Refrigerator (5° C.), 28 days, High conc. sample in 1,2-propanediol
[22] = Refrigerator (5° C.), 56 days, High conc. sample in 1,2-propanediol
[23] = Refrigerator (5° C.), 64 days, Low conc. sample in 1,2-propanediol
[24] = Refrigerator (5° C.), 64 days, Medium conc. sample in 1,2-propanediol
[25] = Refrigerator (5° C.), 84 days, High conc. sample in 1,2-propanediol
[26] = Refrigerator (5° C.), 84 days, Low conc. sample in 1,2-propanediol
[27] = Refrigerator (5° C.), 84 days, Medium conc. sample in 1,2-propanediol
[28] = Refrigerator (5° C.), Start, High conc. sample in 1,2-propanediol
[29] = Refrigerator (5° C.), Start, Low conc. sample in 1,2-propanediol
[30] = Refrigerator (5° C.), Start, Medium conc. sample in 1,2-propanediol

Structure (SMILES): CC(O)CON=O (stereo not drawn) [1-Nitrite, 1-(nitrosooxy)-propan-2-ol]
- Concentration (% w/w) [1]: 0.08 % w/w
- Concentration (% w/w) [2]: 0.81 % w/w
- Concentration (% w/w) [3]: 3.76 % w/w
- Concentration (% w/w) [4]: 0.07 % w/w
- Concentration (% w/w) [5]: 0.74 % w/w
- Concentration (% w/w) [6]: 3.72 % w/w
- Concentration (% w/w) [7]: 3.55 % w/w
- Concentration (% w/w) [8]: 0.07 % w/w
- Concentration (% w/w) [9]: 0.74 % w/w
- Concentration (% w/w) [10]: 3.50 % w/w
- Concentration (% w/w) [11]: 0.08 % w/w
- Concentration (% w/w) [12]: 0.78 % w/w
- Concentration (% w/w) [13]: 3.75 % w/w
- Concentration (% w/w) [14]: 0.08 % w/w
- Concentration (% w/w) [15]: 0.81 % w/w
- Concentration (% w/w) [16]: 0.08 % w/w
- Concentration (% w/w) [17]: 0.86 % w/w
- Concentration (% w/w) [18]: 3.72 % w/w
- Concentration (% w/w) [19]: 0.09 % w/w
- Concentration (% w/w) [20]: 0.81 % w/w
- Concentration (% w/w) [21]: 3.67 % w/w
- Concentration (% w/w) [22]: 3.47 % w/w
- Concentration (% w/w) [23]: 0.07 % w/w
- Concentration (% w/w) [24]: 0.73 % w/w
- Concentration (% w/w) [25]: 3.33 % w/w
- Concentration (% w/w) [26]: 0.07 % w/w
- Concentration (% w/w) [27]: 0.77 % w/w
- Concentration (% w/w) [28]: 3.75 % w/w
- Concentration (% w/w) [29]: 0.08 % w/w
- Concentration (% w/w) [30]: 0.81 % w/w

Structure (SMILES): CC(CO)ON=O (stereo not drawn) [2-Nitrite, 2-(nitrosooxy)-propan-1-ol]
- Concentration (% w/w) [1]: 0.06 % w/w
- Concentration (% w/w) [2]: 0.63 % w/w
- Concentration (% w/w) [3]: 2.89 % w/w
- Concentration (% w/w) [4]: 0.06 % w/w
- Concentration (% w/w) [5]: 0.57 % w/w
- Concentration (% w/w) [6]: 2.93 % w/w
- Concentration (% w/w) [7]: 2.74 % w/w
- Concentration (% w/w) [8]: 0.06 % w/w
- Concentration (% w/w) [9]: 0.58 % w/w
- Concentration (% w/w) [10]: 2.71 % w/w
- Concentration (% w/w) [11]: 0.06 % w/w
- Concentration (% w/w) [12]: 0.62 % w/w
- Concentration (% w/w) [13]: 2.94 % w/w
- Concentration (% w/w) [14]: 0.06 % w/w
- Concentration (% w/w) [15]: 0.61 % w/w
- Concentration (% w/w) [16]: 0.06 % w/w
- Concentration (% w/w) [17]: 0.67 % w/w
- Concentration (% w/w) [18]: 2.91 % w/w
- Concentration (% w/w) [19]: 0.07 % w/w
- Concentration (% w/w) [20]: 0.63 % w/w
- Concentration (% w/w) [21]: 2.90 % w/w
- Concentration (% w/w) [22]: 2.69 % w/w
- Concentration (% w/w) [23]: 0.06 % w/w
- Concentration (% w/w) [24]: 0.57 % w/w
- Concentration (% w/w) [25]: 2.59 % w/w
- Concentration (% w/w) [26]: 0.06 % w/w
- Concentration (% w/w) [27]: 0.60 % w/w
- Concentration (% w/w) [28]: 2.94 % w/w
- Concentration (% w/w) [29]: 0.06 % w/w
- Concentration (% w/w) [30]: 0.61 % w/w
